From PubChem BioAssay AID256 (DTP/NCI, 2004)
Several values for one entry are separate records, joined by “and”; a condition that tells them apart may be missing. Equal values may be shown once. Inconclusive results and toxic doses are left out. How the source made its calls: active means survival T/C of 150% or more; inactive means T/C below 125% in these data.

System: CD2F1 mice, L1210 leukemia ip, survival T/C
Assay: NCI In Vivo Anticancer Drug Screen. Data for tumor model L1210 Leukemia (intraperitoneal) in CD2F1 (CDF1) mice
Conditions: higher = longer survival
Method in brief: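 Implant tumor; dose compound or vehicle; measure endpoint in both groups; report treated divided by control.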

[1] = endpoint: mean survival time, dose: 100.0 mg/kg/injection, schedule: Q04DX003 (ip), vehicle: saline
[2] = endpoint: mean survival time, dose: 200.0 mg/kg/injection, schedule: Q04DX003 (ip), vehicle: saline
[3] = endpoint: mean survival time, dose: 50.0 mg/kg/injection, schedule: Q01DX009 (ip), vehicle: saline with Tween-80
[4] = endpoint: mean survival time, dose: 100.0 mg/kg/injection, schedule: Q01DX009 (ip), vehicle: saline with Tween-80
[5] = endpoint: mean survival time, dose: 200.0 mg/kg/injection, schedule: Q01DX009 (ip), vehicle: saline with Tween-80
[6] = endpoint: mean survival time, dose: 100.0 mg/kg/injection, schedule: Q04DX003 (ip), vehicle: saline with Tween-80
[7] = endpoint: mean survival time, dose: 200.0 mg/kg/injection, schedule: Q04DX003 (ip), vehicle: saline with Tween-80
[8] = endpoint: mean survival time, dose: 400.0 mg/kg/injection, schedule: Q04DX003 (ip), vehicle: saline with Tween-80
[9] = endpoint: mean survival time, dose: 12.5 mg/kg/injection, schedule: Q01DX009 (ip), vehicle: Klucel (hydroxypropylcellulose) (HPC)
[10] = endpoint: mean survival time, dose: 25.0 mg/kg/injection, schedule: Q01DX009 (ip), vehicle: Klucel (hydroxypropylcellulose) (HPC)

Measured: T/C

N#Cc1c(-c2ccc(F)cc2)c(-c2ccc(F)cc2)nn(CCO)c1=O
active: endpoint: median survival time, dose: 333.3 mg/kg/injection, schedule: Q01DX005 (ip), vehicle: water 325 % of control | endpoint: median survival time, dose: 333.33 mg/kg/injection, schedule: Q01DX005 (ip), vehicle: water 196 % of control | endpoint: median survival time, dose: 500.0 mg/kg/injection, schedule: Q01DX005 (ip), vehicle: distilled water + Tween-80 204 % of control | endpoint: median survival time, dose: 555.55 mg/kg/injection, schedule: Q01DX005 (ip), vehicle: water 264 % of control
inactive: endpoint: median survival time, dose: 12.5 mg/kg/injection, schedule: Q01DX005 (ip), vehicle: distilled water + Tween-80 98 % of control and 100 % of control | endpoint: median survival time, dose: 25.0 mg/kg/injection, schedule: Q01DX005 (ip), vehicle: distilled water + Tween-80 98 % of control and 100 % of control | endpoint: median survival time, dose: 50.0 mg/kg/injection, schedule: Q01DX005 (ip), vehicle: distilled water + Tween-80 102 % of control and 104 % of control | endpoint: median survival time, dose: 72.0 mg/kg/injection, schedule: Q01DX005 (ip), vehicle: water 106 % of control and 111 % of control | endpoint: median survival time, dose: 100.0 mg/kg/injection, schedule: Q01DX005 (ip), vehicle: distilled water + Tween-80 107 % of control | endpoint: median survival time, dose: 108.0 mg/kg/injection, schedule: Q01DX005 (ip), vehicle: distilled water + Tween-80 118 % of control | endpoint: median survival time, dose: 120.0 mg/kg/injection, schedule: Q01DX005 (ip), vehicle: water 121 % of control and 123 % of control | endpoint: median survival time, dose: 180.0 mg/kg/injection, schedule: Q01DX005 (ip), vehicle: distilled water + Tween-80 124 % of control | endpoint: median survival time, dose: 200.0 mg/kg/injection, schedule: Q01DX005 (ip), vehicle: distilled water + Tween-80 110 % of control

NC(=O)Nc1cc(NC(N)=O)cc(N(CCCl)CCCl)c1
inactive: endpoint: mean survival time, dose: 2.5 mg/kg/injection, schedule: Q01DX009 (ip), vehicle: Klucel (hydroxypropylcellulose) (HPC) 108 % of control | endpoint: mean survival time, dose: 5.0 mg/kg/injection, schedule: Q01DX009 (ip), vehicle: Klucel (hydroxypropylcellulose) (HPC) 111 % of control | endpoint: mean survival time, dose: 10.0 mg/kg/injection, schedule: Q01DX009 (ip), vehicle: Klucel (hydroxypropylcellulose) (HPC) 119 % of control

C/C=C1\C(=O)O[C@@]23C=C[C@H]4C(C(=O)OC)=CO[C@@H](O[C@H]12)[C@H]43
inactive: endpoint: mean survival time, dose: 50.0 mg/kg/injection, schedule: Q01DX001 (ip), vehicle: saline 95 % of control

CCOC(=O)c1cc2c3n(c1=O)CCCC3C(c1ccccn1)OC2=O (stereo not given)
inactive: [1] 100 % of control | [2] 107 % of control | endpoint: mean survival time, dose: 400.0 mg/kg/injection, schedule: Q04DX003 (ip), vehicle: saline 102 % of control

O=C(O)/C=C/C1=CCCCC1
inactive: [3] 101 % of control | [4] 93 % of control | [5] 93 % of control

Cc1cc(N)c(C)c(C)c1O
inactive: endpoint: mean survival time, dose: 25.0 mg/kg/injection, schedule: Q01DX009 (ip), vehicle: saline with Tween-80 90 % of control | [3] 98 % of control | [4] 88 % of control

COc1cc([N+](=O)[O-])ccc1NC(=O)N(c1ccccc1)C(C)C
inactive: endpoint: mean survival time, dose: 100.0 mg/kg/injection, schedule: Q01DX001 (ip), vehicle: saline with Tween-80 101 % of control and 112 % of control | [4] 98 % of control and 105 % of control | endpoint: mean survival time, dose: 100.0 mg/kg/injection, schedule: Q04DX002 (ip), vehicle: saline with Tween-80 96 % of control | [6] 101 % of control | endpoint: mean survival time, dose: 200.0 mg/kg/injection, schedule: Q01DX001 (ip), vehicle: saline with Tween-80 101 % of control and 104 % of control | [5] 94 % of control and 95 % of control | endpoint: mean survival time, dose: 200.0 mg/kg/injection, schedule: Q04DX002 (ip), vehicle: saline with Tween-80 98 % of control | [7] 95 % of control | endpoint: mean survival time, dose: 400.0 mg/kg/injection, schedule: Q01DX001 (ip), vehicle: saline with Tween-80 95 % of control and 97 % of control | endpoint: mean survival time, dose: 400.0 mg/kg/injection, schedule: Q01DX009 (ip), vehicle: saline with Tween-80 94 % of control and 101 % of control | endpoint: mean survival time, dose: 400.0 mg/kg/injection, schedule: Q04DX002 (ip), vehicle: saline with Tween-80 98 % of control | [8] 103 % of control

O=C1C2C3C=CC(C2C(=O)N1CO)C1C2C(=O)N(CO)C(=O)C2C31 (stereo not given)
inactive: endpoint: median survival time, dose: 6.25 mg/kg/injection, schedule: Q01DX009 (ip), vehicle: water 104 % of control | endpoint: median survival time, dose: 12.5 mg/kg/injection, schedule: Q01DX009 (ip), vehicle: water 107 % of control | endpoint: median survival time, dose: 25.0 mg/kg/injection, schedule: Q01DX009 (ip), vehicle: water 124 % of control | endpoint: median survival time, dose: 83.3 mg/kg/injection, schedule: Q01DX009 (ip), vehicle: water 100 % of control
active: endpoint: median survival time, dose: 50.0 mg/kg/injection, schedule: Q01DX009 (ip), vehicle: water 190 % of control and 214 % of control

OCc1cc(Cl)cc(Cl)c1OCc1ccccc1
inactive: endpoint: mean survival time, dose: 100.0 mg/kg/injection, schedule: Q04DX002 (ip), vehicle: other 101 % of control | endpoint: mean survival time, dose: 200.0 mg/kg/injection, schedule: Q04DX002 (ip), vehicle: other 101 % of control | endpoint: mean survival time, dose: 400.0 mg/kg/injection, schedule: Q04DX002 (ip), vehicle: other 101 % of control

CNNCCCC(=O)NC(C)C
inactive: endpoint: mean survival time, dose: 25.0 mg/kg/injection, schedule: Q04DX003 (ip), vehicle: saline 105 % of control | endpoint: mean survival time, dose: 50.0 mg/kg/injection, schedule: Q04DX003 (ip), vehicle: saline 103 % of control | [1] 110 % of control | [2] 112 % of control

COc1ccc(CC2C(=O)NC(C)C(=O)N(C)C3C(=O)N(C)C(Cc4ccc(O)c(c4)Oc4ccc(cc4)C3O)C(=O)NC(C)C(=O)NC(C)C(=O)N2C)cc1 (stereo not given)
inactive: endpoint: mean survival time, dose: 0.06 mg/kg/injection, schedule: Q01DX009 (ip), vehicle: saline 106 % of control | endpoint: mean survival time, dose: 0.12 mg/kg/injection, schedule: Q01DX009 (ip), vehicle: saline 113 % of control and 102 % of control and 104 % of control | endpoint: mean survival time, dose: 0.25 mg/kg/injection, schedule: Q01DX009 (ip), vehicle: Klucel (hydroxypropylcellulose) (HPC) 113 % of control and 110 % of control | endpoint: mean survival time, dose: 0.25 mg/kg/injection, schedule: Q01DX009 (ip), vehicle: saline 114 % of control and 97 % of control and 108 % of control | endpoint: mean survival time, dose: 0.5 mg/kg/injection, schedule: Q01DX009 (ip), vehicle: Klucel (hydroxypropylcellulose) (HPC) 113 % of control and 103 % of control | endpoint: mean survival time, dose: 0.5 mg/kg/injection, schedule: Q01DX009 (ip), vehicle: saline 104 % of control and 109 % of control | endpoint: mean survival time, dose: 1.0 mg/kg/injection, schedule: Q01DX009 (ip), vehicle: Klucel (hydroxypropylcellulose) (HPC) 113 % of control and 110 % of control | endpoint: mean survival time, dose: 1.0 mg/kg/injection, schedule: Q01DX009 (ip), vehicle: saline 113 % of control and 114 % of control and 110 % of control | endpoint: mean survival time, dose: 2.0 mg/kg/injection, schedule: Q01DX009 (ip), vehicle: Klucel (hydroxypropylcellulose) (HPC) 113 % of control and 111 % of control | endpoint: mean survival time, dose: 2.0 mg/kg/injection, schedule: Q01DX009 (ip), vehicle: saline 116 % of control and 123 % of control | endpoint: mean survival time, dose: 4.0 mg/kg/injection, schedule: Q01DX009 (ip), vehicle: Klucel (hydroxypropylcellulose) (HPC) 119 % of control | endpoint: mean survival time, dose: 4.0 mg/kg/injection, schedule: Q01DX009 (ip), vehicle: saline 88 % of control and 96 % of control

O=C1C=CC(=O)N1c1ccc(Cl)cc1
inactive: endpoint: mean survival time, dose: 6.25 mg/kg/injection, schedule: Q01DX001 (ip), vehicle: Klucel (hydroxypropylcellulose) (HPC) 100 % of control | endpoint: mean survival time, dose: 6.25 mg/kg/injection, schedule: Q01DX009 (ip), vehicle: Klucel (hydroxypropylcellulose) (HPC) 110 % of control | endpoint: mean survival time, dose: 6.25 mg/kg/injection, schedule: Q04DX003 (ip), vehicle: Klucel (hydroxypropylcellulose) (HPC) 107 % of control | endpoint: mean survival time, dose: 12.5 mg/kg/injection, schedule: Q01DX001 (ip), vehicle: Klucel (hydroxypropylcellulose) (HPC) 103 % of control | [9] 101 % of control | endpoint: mean survival time, dose: 12.5 mg/kg/injection, schedule: Q04DX003 (ip), vehicle: Klucel (hydroxypropylcellulose) (HPC) 104 % of control | [10] 96 % of control

CNC(=O)SCc1ccc(Cl)cc1
inactive: [6] 98 % of control | [7] 96 % of control | [8] 102 % of control

ClC1CCCC[N-]1.ClC1CCCC[N-]1.[Cl][Pt+2][Cl] (stereo not given)
inactive: [9] 103 % of control | [10] 100 % of control | endpoint: mean survival time, dose: 50.0 mg/kg/injection, schedule: Q01DX009 (ip), vehicle: Klucel (hydroxypropylcellulose) (HPC) 95 % of control | endpoint: mean survival time, dose: 100.0 mg/kg/injection, schedule: Q01DX009 (ip), vehicle: Klucel (hydroxypropylcellulose) (HPC) 94 % of control | endpoint: mean survival time, dose: 200.0 mg/kg/injection, schedule: Q01DX009 (ip), vehicle: Klucel (hydroxypropylcellulose) (HPC) 97 % of control

COc1ccc(/C=C(/C(=O)O)c2ccc(OC)cc2)cc1
inactive: endpoint: mean survival time, dose: 100.0 mg/kg/injection, schedule: Q01DX009 (ip), vehicle: other 98 % of control | endpoint: mean survival time, dose: 200.0 mg/kg/injection, schedule: Q01DX009 (ip), vehicle: other 102 % of control | endpoint: mean survival time, dose: 400.0 mg/kg/injection, schedule: Q01DX009 (ip), vehicle: other 98 % of control
